From patent publication US20250270200A1, “CTPS1 INHIBITORS AND USES THEREOF” (Nimbus Clotho, Inc., priority 2022, published 2025)
pIC50: −log10 of the molar value. Structures can show the parent of a compound that is named as a salt.

Molecular target: T1, human CTPS1 (Homo sapiens, UniProt P17812)
T1 sequence (P17812 1-591): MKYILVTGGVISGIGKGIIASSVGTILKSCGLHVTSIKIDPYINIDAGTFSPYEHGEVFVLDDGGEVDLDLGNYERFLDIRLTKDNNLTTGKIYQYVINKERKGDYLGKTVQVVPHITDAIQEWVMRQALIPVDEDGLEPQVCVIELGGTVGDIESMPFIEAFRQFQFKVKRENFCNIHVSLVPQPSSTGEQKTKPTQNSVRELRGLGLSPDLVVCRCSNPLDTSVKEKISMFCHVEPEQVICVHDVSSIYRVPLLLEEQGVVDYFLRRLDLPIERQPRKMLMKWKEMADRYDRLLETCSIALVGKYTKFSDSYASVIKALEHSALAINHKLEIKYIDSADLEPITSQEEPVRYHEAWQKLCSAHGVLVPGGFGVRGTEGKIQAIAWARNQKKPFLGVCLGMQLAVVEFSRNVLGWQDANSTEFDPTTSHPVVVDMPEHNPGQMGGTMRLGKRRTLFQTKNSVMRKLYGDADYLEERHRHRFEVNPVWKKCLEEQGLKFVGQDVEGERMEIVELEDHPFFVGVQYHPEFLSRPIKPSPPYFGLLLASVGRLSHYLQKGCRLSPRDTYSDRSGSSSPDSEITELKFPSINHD
Experiment: ADP-Glo assay, human CTPS1 enzyme inhibition
Format: biochemical
Settings: wild-type human CTPS1, 25 nM enzyme; ADP-Glo; read-out: ADP-Glo_WT_hCTPS1—25 nM_IC50 (IC50)
How it was run: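 Full-length tagged human CTPS1 (25 nM) pre-incubated 10 min at 25° C with compound, then 10 min with ATP (120 μM) and UTP (160 μM); reaction started with L-glutamine (100 μM) and GTP (60 μM), 1% DMSO, in HEPES pH 7.4, 10 mM Mg2+, 5 mM KCl, 2 mM DTT. Run within linear phase at 25° C; ADP measured by ADP-Glo luminescence.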

Row | pIC50 | SMILES
1 | 7.60 to 8.30 | CCOc1cncc(-c2cnc(C(=O)N[C@H](c3cccc(NS(=O)(=O)C(F)F)c3)[C@@H]3COCCO3)s2)n1 [I-199, N-((R)-(3-((difluoromethyl)sulfonamido)phenyl)((R)-1,4-dioxan-2-yl)methyl)-5-(6-ethoxypyrazin-2-yl)thiazole-2-carboxamide]
2 | 7.60 to 8.30 | CCOc1cncc(-c2cnc(C(=O)N[C@@H](c3cccc(NS(=O)(=O)C(F)F)c3)[C@@H]3COCCO3)s2)n1 [I-200, N-((S)-(3-((difluoromethyl)sulfonamido)phenyl)((R)-1,4-dioxan-2-yl)methyl)-5-(6-ethoxypyrazin-2-yl)thiazole-2-carboxamide]
3 | 7.60 to 8.30 | CCOc1cncc(-c2cnc(C(=O)N[C@@H](c3cccc(NS(=O)(=O)C(F)F)c3)[C@H]3COCCO3)s2)n1 [I-201, N-((S)-(3-((difluoromethyl)sulfonamido)phenyl)((S)-1,4-dioxan-2-yl)methyl)-5-(6-ethoxypyrazin-2-yl)thiazole-2-carboxamide]
4 | 7.60 to 8.30 | CCOc1cncc(-c2cnc(C(=O)N[C@]3(c4cccc(NS(=O)(=O)C(F)F)c4)C[C@H](O)C3)s2)n1 [I-202, N-((1s,3s)-1-(3-((difluoromethyl)sulfonamido)phenyl)-3-hydroxycyclobutyl)-5-(6-ethoxypyrazin-2-yl)thiazole-2-carboxamide]
5 | 7.60 to 8.30 | CCOc1cncc(-c2cnc(C(=O)N[C@]3(c4cccc(NS(=O)(=O)C(F)F)c4)C[C@@H](O)C3)s2)n1 [I-203, N-((1r,3r)-1-(3-((difluoromethyl)sulfonamido)phenyl)-3-hydroxycyclobutyl)-5-(6-ethoxypyrazin-2-yl)thiazole-2-carboxamide]
6 | 7.60 to 8.30 | CCOc1cncc(-c2cnc(C(=O)N[C@@H](CN3C[C@H]4C[C@@H]3CO4)c3cccc(NS(=O)(=O)C(F)F)c3)s2)n1 [I-204, N-((R)-2-((1R,4R)-2-oxa-5-azabicyclo[2.2.1]heptan-5-yl)-1-(3-((difluoromethyl)sulfonamido)phenyl)ethyl)-5-(6-ethoxypyrazin-2-yl)thiazole-2-carboxamide]
7 | 7.30 to 7.60 | CCOc1cncc(-c2cnc(C(=O)N[C@H](CN3C[C@H]4C[C@@H]3CO4)c3cccc(NS(=O)(=O)C(F)F)c3)s2)n1 [I-205, N-((S)-2-((1R,4R)-2-oxa-5-azabicyclo[2.2.1]heptan-5-yl)-1-(3-((difluoromethyl)sulfonamido)phenyl)ethyl)-5-(6-ethoxypyrazin-2-yl)thiazole-2-carboxamide, formic acid salt]
8 | 7.60 to 8.30 | CCOc1cncc(-c2cnc(C(=O)N[C@@H](CN3CC[C@@](C)(O)C3)c3cccc(NS(=O)(=O)C(F)F)c3)s2)n1 [I-206, N-((R)-1-(3-((difluoromethyl)sulfonamido)phenyl)-2-((R)-3-hydroxy-3-methylpyrrolidin-1-yl)ethyl)-5-(6-ethoxypyrazin-2-yl)thiazole-2-carboxamide]
9 | 7.30 to 7.60 | CCOc1cncc(-c2cnc(C(=O)N[C@H](CN3CC[C@@](C)(O)C3)c3cccc(NS(=O)(=O)C(F)F)c3)s2)n1 [I-207, N-((S)-1-(3-((difluoromethyl)sulfonamido)phenyl)-2-((R)-3-hydroxy-3-methylpyrrolidin-1-yl)ethyl)-5-(6-ethoxypyrazin-2-yl)thiazole-2-carboxamide]
10 | 7.60 to 8.30 | CCOc1cncc(-c2cnc(C(=O)N[C@H](CN3CC[C@](C)(O)C3)c3cccc(NS(=O)(=O)C(F)F)c3)s2)n1 [I-208, N-((S)-1-(3-((difluoromethyl)sulfonamido)phenyl)-2-((S)-3-hydroxy-3-methylpyrrolidin-1-yl)ethyl)-5-(6-ethoxypyrazin-2-yl)thiazole-2-carboxamide, formic acid salt]
11 | 7.60 to 8.30 | CCOc1cncc(-c2cnc(C(=O)N[C@@H](CN3CC[C@](C)(O)C3)c3cccc(NS(=O)(=O)C(F)F)c3)s2)n1 [I-209, N-((R)-1-(3-((difluoromethyl)sulfonamido)phenyl)-2-((S)-3-hydroxy-3-methylpyrrolidin-1-yl)ethyl)-5-(6-ethoxypyrazin-2-yl)thiazole-2-carboxamide, formic acid salt]
12 | 7.60 to 8.30 | CCOc1cncc(-c2cnc(C(=O)N[C@@H](CN3C[C@H]4CC[C@@H]3C4)c3cccc(NS(=O)(=O)C(F)F)c3)s2)n1 [I-210, N-((R)-2-((1R,4S)-2-azabicyclo[2.2.1]heptan-2-yl)-1-(3-((difluoromethyl)sulfonamido)phenyl)ethyl)-5-(6-ethoxypyrazin-2-yl)thiazole-2-carboxamide]
13 | 7.00 to 7.30 | CCOc1cncc(-c2cnc(C(=O)N[C@H](CN3C[C@H]4CC[C@@H]3C4)c3cccc(NS(=O)(=O)C(F)F)c3)s2)n1 [I-211, N-((S)-2-((1R,4S)-2-azabicyclo[2.2.1]heptan-2-yl)-1-(3-((difluoromethyl)sulfonamido)phenyl)ethyl)-5-(6-ethoxypyrazin-2-yl)thiazole-2-carboxamide]
14 | 7.30 to 7.60 | CCOc1cncc(-c2cnc(C(=O)N[C@@H](CN(C)C)c3cccc(NS(=O)(=O)C(F)F)c3)s2)n1 [I-212, (R)-N-(1-(3-((difluoromethyl)sulfonamido)phenyl)-2-(dimethylamino)ethyl)-5-(6-ethoxypyrazin-2-yl)thiazole-2-carboxamide]
15 | 7.60 to 8.30 | CCOc1cncc(-c2cnc(C(=O)N[C@H](CN(C)C)c3cccc(NS(=O)(=O)C(F)F)c3)s2)n1 [I-213, (S)-N-(1-(3-((difluoromethyl)sulfonamido)phenyl)-2-(dimethylamino)ethyl)-5-(6-ethoxypyrazin-2-yl)thiazole-2-carboxamide]
16 | 7.60 to 8.30 | CCOc1cncc(-c2cnc(C(=O)N[C@@H](Cn3ccnn3)c3cccc(NS(=O)(=O)C(F)F)c3)s2)n1 [I-214, (R)-N-(1-(3-((difluoromethyl)sulfonamido)phenyl)-2-(1H-1,2,3-triazol-1-yl)ethyl)-5-(6-ethoxypyrazin-2-yl)thiazole-2-carboxamide]
17 | 7.60 to 8.30 | CCOc1cncc(-c2cnc(C(=O)N[C@H](Cn3ccnn3)c3cccc(NS(=O)(=O)C(F)F)c3)s2)n1 [I-215, (S)-N-(1-(3-((difluoromethyl)sulfonamido)phenyl)-2-(1H-1,2,3-triazol-1-yl)ethyl)-5-(6-ethoxypyrazin-2-yl)thiazole-2-carboxamide]
18 | ≥ 8.30 | CCOc1cncc(-c2cnc(C(=O)N[C@H](Cn3nccn3)c3cccc(NS(=O)(=O)C(F)F)c3)s2)n1 [I-216, (S)-N-(1-(3-((difluoromethyl)sulfonamido)phenyl)-2-(2H-1,2,3-triazol-2-yl)ethyl)-5-(6-ethoxypyrazin-2-yl)thiazole-2-carboxamide]
19 | 7.60 to 8.30 | CCOc1cncc(-c2cnc(C(=O)N[C@@H](Cn3nccn3)c3cccc(NS(=O)(=O)C(F)F)c3)s2)n1 [I-217, (R)-N-(1-(3-((difluoromethyl)sulfonamido)phenyl)-2-(2H-1,2,3-triazol-2-yl)ethyl)-5-(6-ethoxypyrazin-2-yl)thiazole-2-carboxamide]
20 | 7.30 to 7.60 | CCOc1cncc(-c2cnc(C(=O)N[C@H](CN3CCCCC3)c3cccc(NS(=O)(=O)C(F)F)c3)s2)n1 [I-218, (S)-N-(1-(3-((difluoromethyl)sulfonamido)phenyl)-2-(piperidin-1-yl)ethyl)-5-(6-ethoxypyrazin-2-yl)thiazole-2-carboxamide]
21 | 7.60 to 8.30 | CCOc1cncc(-c2cnc(C(=O)N[C@@H](CN3CCCCC3)c3cccc(NS(=O)(=O)C(F)F)c3)s2)n1 [I-219, (R)-N-(1-(3-((difluoromethyl)sulfonamido)phenyl)-2-(piperidin-1-yl)ethyl)-5-(6-ethoxypyrazin-2-yl)thiazole-2-carboxamide]
22 | 7.30 to 7.60 | O=C(N[C@H](CN1CCCC1)c1cccc(NS(=O)(=O)C(F)F)c1)c1ncc(-c2cnn3ccc(Cl)cc23)s1 [I-220, (S)-5-(5-chloropyrazolo[1,5-a]pyridin-3-yl)-N-(1-(3-((difluoromethyl)sulfonamido)phenyl)-2-(pyrrolidin-1-yl)ethyl)thiazole-2-carboxamide]
23 | 7.30 to 7.60 | O=C(N[C@@H](CN1CCCC1)c1cccc(NS(=O)(=O)C(F)F)c1)c1ncc(-c2cnn3ccc(Cl)cc23)s1 [I-221, (R)-5-(5-chloropyrazolo[1,5-a]pyridin-3-yl)-N-(1-(3-((difluoromethyl)sulfonamido)phenyl)-2-(pyrrolidin-1-yl)ethyl)thiazole-2-carboxamide]
24 | 7.60 to 8.30 | CCOc1cncc(-c2cnc(C(=O)N[C@@H](c3cccc(NS(=O)(=O)C(F)F)c3)[C@H](C)N3CCOCC3)s2)n1 [I-222, N-((1S,2S)-1-(3-((difluoromethyl)sulfonamido)phenyl)-2-morpholinopropyl)-5-(6-ethoxypyrazin-2-yl)thiazole-2-carboxamide]
25 | 7.60 to 8.30 | CCOc1cncc(-c2cnc(C(=O)N[C@H](c3cccc(NS(=O)(=O)C(F)F)c3)[C@@H](C)N3CCOCC3)s2)n1 [I-224, N-((1R,2R)-1-(3-((difluoromethyl)sulfonamido)phenyl)-2-morpholinopropyl)-5-(6-ethoxypyrazin-2-yl)thiazole-2-carboxamide]
